These results are taken from US12252472B1, “Barbituric acid derivatives, their preparation and use thereof as leukocyte transmigration inhibitors and for treating inflammatory diseases, autoimmune diseases and cancer” (BAR-ILAN UNIVERSITY, priority 2017, dated 2025).

The test system of data set [1] is human B-lymphoma cells. The data set is described as follows: B-lymphoma homing assay in NOD.CB17-Prkdcscid/J mice. The class given is in vivo. How it is done:
Effect on the homing of the B-lymphocytes was tested in a model of B-cell lymphoma. Compound of Formula 2 (7.5 μM) was injected IV, together with 10×10^6 human B-lymphoma cells. After one and a half hours the amount of B-lymphocytes was tested in different organs.

Data set [2] relates to C57BL/6J mice. The experiment in a line: Acute toxicology in naive mice (blood counts, biochemical tests, histology). The class given is in vivo, mouse. On the procedure:
1% methyl cellulose in DDW solution was prepared by adding 0.5 g methyl cellulose into 50 ml of DDW and stirring the solution at the lowest possible speed (without making bubbles) overnight at room temperature. Formula 2 stock solution was prepared in concertation of 20 mg/ml at room temperature following shown below order of actions: • 1. 30 mg of the compound of Formula 2 was placed in the glass vial together with small magnet. • 2. 1.5 ml of 1% methylcellulose was added by circular (swirled) movement very slow. The entire surface of the vial was gently covered by the solvent and powder was not allowed to float above the liquid. • 3. The resulting suspension was stirred at the lowest possible speed up to 48 hours at room temperature. • 4. Intermediate Formula 2 stock solution at 10 mg/ml concentration was prepared by diluting 20 mg/ml stock solution 1:1 (v/v) with equal amount of DDW. DDW was added to the Formula 2 stock solution. The obtained suspension was stirred at the lowest possible speed for another hour at room temperature. • 5. Formula 2 working solution at 3 mg/ml was prepared by diluting intermediate stock solution (v/v) with DDW accordingly. The working suspension of Formula 2 was stirred at the low speed (˜80-100 rpm) for 30 minutes to 1 hour prior to use in animal experiments.
Eight experimental groups with 5 female 6-7 weeks old C57BL/6J mice each and one control group non treated (naïve) mice were used for the experiment. Mice were administered with daily application of the working suspension of the compound of Formula 2, prepared as described hereinabove, at 5, 10 and 15 mg/kg by intraperitoneal injection (IP) or at 10, 20 and 30 mg/kg by oral gavage (PO). […] Mice from all groups were euthanized with isoflurane 24 hours post last dose administration. Sampling for whole blood counts (WBC) and white blood differentiation: 200 μl of whole blood were collected into EDTA tubes (Greiner MiniCollect K3EDTA tubes). For comprehensive metabolic panel the rest of the whole blood (300-400 μl) was collected for the serum preparation. All blood tests were conducted in American Medical Labs, Herzeliah, Israel. Liver, spleen, lungs, heart and kidneys were collected from each mouse placed to vials with 4% buffered formalin following paraffin embedding and sectioning. Sections from each organ of each animal were stained with H&E and histological evaluation of the tissue was performed.

Data set [3] has as its system C57BL/6J mice. The experiment in a line: Acute dextran sodium sulfate (DSS) induced colitis model. In kind it is in vivo, mouse. How it is done:
The colitis was inducted by adding 1.5% DSS to the drinking water of female C57BL/6J (7-8 weeks old) mice for 5 consecutive days (days 0-4) for all animals in the experimental groups. On day 5, DSS containing water was changed for regular drinking water and treatment was initiated. The working suspension of the compound of Formula 2 was administrated at 15 mg/kg by IV, IP or SC injections at q3w regimen (administered 3 times per week) and at 30 mg/kg by PO at qd regimen (once daily). Treatment continued for 10 days and thereafter mice were euthanized.
Determination of individual body weight of animals was made prior to each dosing and the administered volume was adjusted accordingly. Additional body weights throughout the entire experimental period were taken on a daily bases. The severity of colitis Disease Activity Index (DAI) score was monitored daily according to the criteria shown in Table 3 and calculated as a sum of the weight loss score, the diarrheal score and the hematochezia score. Disease activity index (DAI) based on the methods reported by Friedman et al. (PNAS, 2009) was used.
Mice from all groups were euthanized with isoflurane 24 hours post last dose administration. Colon was collected from each mouse, filled with 4% buffered formalin and colon length was measured. Large intestines were fixed, embedded in paraffin, sections and H&E stained using modified Swiss roll technique. Histological Score evaluation was performed based on: inflammatory cells infiltration and tissue damage, in four compartments of the large intestine graded from 0 to 3.
For tissue damage, discrete lymphoepithelial lesions were scored as 1, mucosal erosions as 2, and extensive mucosal damage and/or extension through deeper structures of the bowel wall as 3. The length of ulceration was measured in mm. The two equally weighted subscores (cell infiltration and tissue damage) at each compartment of the intestine were added as a colitis severity score. Ordinary one-way ANOVA statistical analysis was performed.

For data set [4], the system named is C57BL/6J mice. The data set is described as follows: High-fat-diet induced non-alcoholic fatty liver disease (NAFLD) model. In kind it is in vivo, mouse. To be noted: 15 mg/kg SC or IP q3w; 30 mg/kg PO qd; 65 days. How it is done:
Male C57BL/6J (Envigo, Israel) mice (3-4 weeks of age) were fed ad libitum a high fat, no high carbohydrate diet (modified Western diet, WD) with 42% kcal from fat and containing 0.1% cholesterol (Harlan TD.88137) with normal water (without high fructose-glucose solution) for […] prior to treatment initiation. Control mice were fed a standard chow diet (CD, Harlan TD.7012) with normal water (NW). Compound of Formula 2 was administrated on the 85th day of the high fat diet (15 mg/kg, for S.C and IP at q3w regiment; 30 mg/kg for PO at qd regiment) for 65 days. Mock treated (vehicle) control group was administrated with IP injections at the same volume and regiment as a corresponding treated group for 65 days. Body weight of animals was determined prior to the treatment initiation and the administered volume of the compound of Formula 2 was adjusted according to the body weight. All animals were euthanized 24 hours post last dose administration. At necropsy liver and mesenteric fat wet weights were determined. Liver and mesenteric fat were fixed with 4% buffered formalin, embedded in paraffin, sections and H&E stained. Steatohepatitis was defined by the presence of steatosis, inflammation and hepatocellular ballooning, as per the FLIP algorithm. The severity of steatosis, lobular inflammation and hepatocellular ballooning were scored using the NASH-Clinical Research Network (CRN) criteria. NAFLD activity score (NAS) was calculated by adding the scores of: steatosis (maximal score 3) is defined by more than 66% of hepatocytes containing fat droplets; lobular inflammation (maximal score 3) is defined by >4 foci/200 field; hepatocyte ballooning (maximal score 2) is defined by many cells/prominent ballooning. Ordinary one-way ANOVA statistical analysis was performed.

Where [5] appears, read: 7.5 μM IV together with 10×10^6 cells, after one and a half hours.
Setting [6] is: 5, 10, 15 mg/kg IP or 10, 20, 30 mg/kg PO, daily.

Entries after “also recorded” stand apart in the source; their conditions may differ.

With `COC(=O)c1ccc(COc2c(C=C3C(=O)NC(=O)NC3=O)cccc2C(C)(C)C)cc1` [Formula 2, methyl 4-((2-(tert-butyl)-6-((2,4,6-trioxotetrahydropyrimidin-5(2H)-ylidene)methyl)phenoxy)methyl) benzoate], the “homing of the cancer cells to the spleen and liver” value in data set [1] (7.5 μM IV) is “significantly blocked”. In data set [1] (setting [5]), the “reduction of B-lymphocyte homing in liver” value is reported as “around 33%” and the “reduction of B-lymphocyte homing in spleen” value is “around 22%”. Also, the “microstructure of lungs, heart, liver, spleen and kidney tissues” value in data set [2] (3 doses IP) is recorded as “no effect”. For the same compound, in data set [2] (3 doses PO), the “microstructure of lungs, heart, liver, spleen and kidney tissues” value is “no effect”. Also, in data set [2] (3 doses PO or 3 doses IP, n=5), the “blood levels of calcium, phosphorus, sodium, potassium, chloride and hemolytic index” value is on record as “no effect”; the “blood levels of creatinine, urea, total protein, albumin, globulin, glucose” value was “no effect”; the “blood levels of total billirubin, alkaline phosphatase, SGOT, SGPT and cholesterol” value is “no effect”; the “different subtypes of red blood cells, platelets and hematocrit” value is recorded as “no effect”. The “different subtypes of white blood cells” value in data set [2] (3 doses PO or 3 doses IP, n=5) is listed as “no effect”. Further, in data set [2] (setting [6]), the tested metabolic values entry was “in normal range”; the “whole blood counts and white cells differentiation” value is “no significant changes”. The “tissues morphology, microscopic evaluation” value in data set [2] (liver, spleen, lungs, heart, kidneys, IP and PO) was “no changes”. Further, in data set [3] (30 mg/kg PO qd), the “Disease Activity Index (DAI) score, PO treated mice” value is listed as “maximal effect”. In addition, in data set [3] (all treated groups vs control groups), the “colon length, amount by which control groups were shorter than treated groups” value is given as “approximately 2 cm”. In addition, the “Disease Activity Index (DAI) score” value in data set [3] (all treated groups: 15 mg/kg IV, IP or SC q3w, 30 mg/kg PO qd, 10 days) is on record as “significantly decreased”. Also, in data set [3] (treated groups vs control groups), the Weight loss score result is listed as “significantly lower”. In data set [3] (treated groups vs control mice), the “stool formation that readily becomes paste on the anus” value is “not detected”. For the same compound, in data set [3] (treated vs control mice), the “Histological score of large intestine” value is “significantly lower”. Besides, in data set [4], the NAFLD activity score entry is reported as “significant reduction; also recorded: therapeutic effect”, the mesenteric fat weight result is given as “significant reduction; also recorded: decreased”, the mice body weight entry is “significant reduction” and the wet liver weight result is on record as “significant reduction; also recorded: decreased”.
